Broadly, the inhibition is the percentage by which the read-out fell short of the control.

Holding throughout (assay type): cell-based
Assay [1] has as its system Wnt activity (Sp5-Luc reporter, SW480 colon carcinoma cells). Nature of the assay: Screening assay for Wnt activity (Sp5-Luc reporter gene assay in SW480 cells). As to conditions: Homo sapiens; Sp5-Luc reporter, SW480 cells, incubated overnight. From the text: The screening assay for Wnt activity is described as follows. Reporter cell lines can be generated by stably transducing cancer cell lines (e.g., colon cancer) or primary cells (e.g., IEC-6 intestinal cells) with a lentiviral construct that includes a Wnt-responsive promoter driving expression of the firefly luciferase gene.
SW480 colon carcinoma cells were transduced with a lentiviral vector expressing luciferase with a human Sp5 promoter consisting of a sequence of eight TCF/LEF binding sites. SW480 cells stably expressing the Sp5-Luc reporter gene and a hygromycin resistance gene were selected by treatment with 150 μg/mL of hygromycin for 7 days. These stably transduced SW480 cells were expanded in cell culture and used for all further screening activities. […] For Sp5-Luc reporter gene assays, the cells were plated at 4,000 cells/well in 384-well plates with medium containing 1% fetal bovine serum and incubated overnight at 37° C. and 5% CO2. Following incubation, 20 μl of BrightGlo luminescence reagent (Promega) was added to each well of the 384-well assay plates. The plates were placed on an orbital shaker for 2 min and then luminescence was quantified using the Envision (Perkin Elmer) plate reader. Readings were normalized to DMSO only treated cells, and normalized activities were utilized for EC50 calculations using the dose-response log (inhibitor) vs. response-variable slope (four parameters) nonlinear regression feature available in GraphPad Prism 5.0 (or Dotmatics).
In general terms: In a reporter assay the amount or activity of a reporter protein is the signal.

For assay [2], the system named is SW480 colon cancer cells. The assay can be described thus: Cell viability assay (CellTiter-Blue). As to conditions: Homo sapiens, 96 h; SW480 cell viability, four days, CellTiter-Blue. On the procedure: Representative compounds were screened using the following assay procedure to assess the effect on cell viability as described below.
Approximately 2×10^3 SW480 colon cancer cells were seeded into each well and allowed to incubate in the presence or absence of compound for four days at 37° C./5% CO2. Eight replicates of DMSO-treated cells served as controls and cells treated with compound were performed in duplicate.
After incubation, 20 μL of CellTiter-Blue (Promega) was added to each well allowed to incubate for approximately 3 hours. This reagent was a buffered solution which contains resazurin, metabolically active cells were able to reduce rezarurin (blue) into resorufin (pink) which was highly fluorescent. This measured fluorescence was used as a readout for cell viability.
A general note: Resazurin is reduced to fluorescent resorufin, in cell work by metabolically active cells.

Assay [3] has as its system primary human fibroblasts derived from IPF patients (LL29 cells) treated with TGF-β1. The assay can be described thus: Inhibition of the fibrotic process (αSMA staining) in TGF-β1-treated fibroblasts. Conditions: Fibroblast, 96 h; for EC50: % αSMA-positive LL29 cells, TGF-β1 20 ng/mL, 4 days; for inhibition at 10 µM: read-out: percent inhibition at 10 μM. On the procedure:
Representative compounds were screened using primary human fibroblasts (derived from IPF patients) treated with TGF-β1 to determine their ability to inhibit the fibrotic process.
LL29 cells are plated at 1,500 cells/well in 80 μL/well F12 medium supplemented with 1% Fetal Bovine Serum. […] Wells treated with TGF-P1 and containing DMSO were used as controls. […] Following incubation for 4 days, SYTOX green nucleic acid stain (Life Technologies [Thermo Fisher Scientific]) was added to the wells at a final concentration of 1 μM and incubated at room temperature for 30 min.

Assay [4] deals with primary human mesenchymal stem cells (hMSCs). The assay can be described thus: Induction of chondrogenesis in hMSCs (Rhodamine B / Nile Red nodule imaging). As to conditions: for Emax: maximum activity relative to TGF-β3 (10 ng/mL) positive control, read-out: Max. Activity as % TGF-β3 activity; for EC50: concentration required to induce 50% levels of chondrogenesis vs TGF-β3 positive control, read-out: Conc (nM) of 50% TGF-β3 activity. From the text: Representative compounds were screened using primary human mesenchymal stem cells (hMSCs) to determine their ability to induce chondrogenesis (process by which cartilage is developed).
Primary human mesenchymal stem cells (hMSCs) were purchased from Lonza (Walkersville, Md.) and expanded in Mesenchymal Stem Cell Growth Media (Lonza). Cells between passage 3 and 6 were used for the experiments.
Area of nodules in each well was normalized to the average of 3 DMSO treated wells on the same plate using Excel (Microsoft Inc.). The normalized averages (fold change over DMSO) of 2 or 3 replicate wells for each compound concentration were calculated. Due to solubility limitations of some of the compounds, curve fitting was incomplete leading to inaccurate EC50 determinations.
Using TGF-β3 as a positive control, the concentration of representative compounds required to induce 50% levels of chondrogenesis is reported. In addition, the maximum activity of each compound and the respective dose that each compound reached maximum chondrogenesis activity is reported.

Assay [5] deals with IL-6 (THP-1 cells). Nature of the assay: IL-6 inhibition in LPS-stimulated THP-1 cells (HTRF). As to conditions: Homo sapiens; for EC50: IL6 by HTRF, THP-1 cells, 500 ng/mL LPS, 22 hours. On the procedure:
THP-1 cells were cultured in basal media with 1% FBS for 24 hours before the start of the assay. […] THP-1 cells were plated at 5000 cells/well in the 384-well plates and incubated at 37° C. for 2 h. 500 ng/mL of LPS was added after 2 hours and cells were incubated for another 22 hours at 37° C. Plates were spun in a centrifuge for 1 minute at […] and a mixture of anti-IL6 XL665, and anti-IL6 Cryptate diluted in reconstitution buffer (Cisbio Inc.) was added to each well. Following incubation for 3 hrs at room temperature, Homogeneous Time-Resolved Fluorescence (HTRF) was measured using the Envision (Perkin Elmer) at 665 nm and […]. The ratio of fluorescence at 665 nm to 620 nm was used as a readout for IL6 quantification. All samples were processed in duplicate. Readings were normalized to DMSO treated cells and normalized activities were utilized for EC50 calculations using the dose-response log (inhibitor) vs. response-variable slope (four parameters) nonlinear regression feature available in GraphPad Prism 5.0 (or Dotmatics).

For the molecule `CCC(=O)Nc1cncc(-c2ccc3[nH]nc(-c4cc5c(-c6cccc(F)c6)nccc5[nH]4)c3c2)c1` [Compound 1, N-(5-(3-(4-(3-Fluorophenyl)-1H-pyrrolo[3,2-c]pyridin-2-yl)-1H-indazol-5-yl)pyridin-3-yl)propionamide], the EC50 in assay [1] is 0.045 µM; in assay [2], 0.102 µM; in assay [3], 0.041 µM; in assay [5] it was 0.035 µM. Also, in assay [4], the Emax amounted to 16%.
In the same order, the values of `Fc1cccc(-c2nccc3[nH]c(-c4n[nH]c5ccc(-c6cccnc6)cc45)cc23)c1` [Compound 4, 3-(4-(3-Fluorophenyl)-1H-pyrrolo[3,2-c]pyridin-2-yl)-5-(pyridin-3-yl)-1H-indazole] are 0.14 µM, 0.453 µM, 0.044 µM, 0.164 µM and 32%.
With `CN(C)Cc1cncc(-c2ccc3[nH]nc(-c4cc5c(-c6cccc(F)c6)nccc5[nH]4)c3c2)c1` [Compound 13, 1-(5-(3-(4-(3-Fluorophenyl)-1H-pyrrolo[3,2-c]pyridin-2-yl)-1H-indazol-5-yl)pyridin-3-yl)-N,N-dimethylmethanamine], the EC50 in assay [1] came to 2.94 µM; in assay [2], 0.776 µM; in assay [3], 2.76 µM; in assay [5] it was 0.383 µM. Besides, the Emax in assay [4] came out at 42%.
Regarding `CCCC(=O)Nc1cncc(-c2ccc3[nH]nc(-c4cc5c(-c6cccc(F)c6)nccc5[nH]4)c3c2)c1` [Compound 17, N-(5-(3-(4-(3-Fluorophenyl)-1H-pyrrolo[3,2-c]pyridin-2-yl)-1H-indazol-5-yl)pyridin-3-yl)butyramide], the EC50 was 0.05 µM in assay [1]; 0.093 µM in assay [2]; 0.019 µM in assay [3]; 2700 nM in assay [4]; 0.034 µM in assay [5]. The Emax in assay [4] amounted to 106%.
Turning to `O=C(Nc1cncc(-c2ccc3[nH]nc(-c4cc5c(-c6cccc(F)c6)nccc5[nH]4)c3c2)c1)C1CC1` [Compound 20, N-(5-(3-(4-(3-Fluorophenyl)-1H-pyrrolo[3,2-c]pyridin-2-yl)-1H-indazol-5-yl)pyridin-3-yl)cyclopropanecarboxamide], the EC50 in assay [1] came to 0.05 µM; in assay [2], 0.179 µM; in assay [3], 0.167 µM; in assay [4] it was 2700 nM; in assay [5] it was 0.039 µM. The Emax in assay [4] is 91%.
With `Fc1cccc(-c2nccc3[nH]c(-c4n[nH]c5ccc(-c6cncc(CN7CCC(F)(F)C7)c6)cc45)cc23)c1` [Compound 26, 5-(5-((3,3-Difluoropyrrolidin-1-yl)methyl)pyridin-3-yl)-3-(4-(3-fluorophenyl)-1H-pyrrolo[3,2-c]pyridin-2-yl)-1H-indazole], the EC50 was 0.125 µM in assay [1]; 0.293 µM in assay [2]; 0.169 µM in assay [3]; 10 nM in assay [4]; 0.142 µM in assay [5]. Besides, the Emax in assay [4] is 228%.
Regarding `Fc1ccccc1-c1nccc2[nH]c(-c3n[nH]c4ccc(-c5cncc(OC6CCNCC6)c5)cc34)cc12` [Compound 544, 3-(4-(2-Fluorophenyl)-1H-pyrrolo[3,2-c]pyridin-2-yl)-5-(5-(piperidin-4-yloxy)pyridin-3-yl)-1H-indazole], the EC50 in assay [1] is 2.34 µM; in assay [2] it was 2.62 µM; in assay [3], over 10 µM; in assay [5] it was 2.49 µM. Moreover, in assay [3], the inhibition at 10 µM was found to be 0%.
Take `Cn1cc(-c2ccc3[nH]nc(-c4cc5c(-c6cccnc6)nccc5[nH]4)c3c2)cn1` [Compound 556, 5-(1-Methyl-1H-pyrazol-4-yl)-3-(4-(pyridin-3-yl)-1H-pyrrolo[3,2-c]pyridin-2-yl)-1H-indazole]: the EC50 amounted to 0.059 µM in assay [1], 0.448 µM in assay [2], 0.029 µM in assay [3] and 0.09 µM in assay [5].
In the same order, the values of `NC1CN(c2cncc(-c3ccc4[nH]nc(-c5cc6c(N7CCCCC7)nccc6[nH]5)c4c3)n2)C1` [Compound 606, 1-(6-(3-(4-(Piperidin-1-yl)-1H-pyrrolo[3,2-c]pyridin-2-yl)-1H-indazol-5-yl)pyrazin-2-yl)azetidin-3-amine] are 1.76 µM, 2.79 µM, 0.236 µM and 0.066 µM.
In the same order, the values of `c1cc2[nH]c(-c3n[nH]c4ccc(-c5cncc(OC6CCCCC6)c5)cc34)cc2c(N2CCCCC2)n1` [Compound 607, 5-(5-(Cyclohexyloxy)pyridin-3-yl)-3-(4-(piperidin-1-yl)-1H-pyrrolo[3,2-c]pyridin-2-yl)-1H-indazole] are 1.14 µM, 1.5 µM, 0.487 µM and 1.05 µM.
On to `COc1cncc(-c2ccc3[nH]nc(-c4cc5c(-c6ccc(C)s6)nccc5[nH]4)c3c2)c1` [Compound 740, 5-(5-Methoxypyridin-3-yl)-3-(4-(5-methylthiophen-2-yl)-1H-pyrrolo[3,2-c]pyridin-2-yl)-1H-indazole], for which the EC50 in assay [1] was determined as 1.15 µM; in assay [2], 1.51 µM; in assay [3], 0.445 µM; in assay [5] it was 5.41 µM.
With `CS(=O)(=O)NCc1cc(F)cc(-c2nccc3[nH]c(-c4n[nH]c5ccc(-c6cncc(OCc7ccccc7)c6)cc45)cc23)c1` [Compound 774, N-(3-(2-(5-(5-(Benzyloxy)pyridin-3-yl)-1H-indazol-3-yl)-1H-pyrrolo[3,2-c]pyridin-4-yl)-5-fluorobenzyl)methanesulfonamide], the EC50 in assay [1] was 1.01 µM; in assay [2] it was 0.941 µM; in assay [3] it was 2.3 µM; in assay [5], over 10 µM. Moreover, in assay [5] (THP-1, read-out: percent inhibition at 10 M), the inhibition at 10 µM stood at 42.4%.
For `COc1cncc(-c2ccc3[nH]nc(-c4cc5c(-c6ccco6)nccc5[nH]4)c3c2)c1` [Compound 991, 3-(4-(Furan-2-yl)-1H-pyrrolo[3,2-c]pyridin-2-yl)-5-(5-methoxypyridin-3-yl)-1H-indazole], the EC50 in assay [1] was determined as 1.01 µM; in assay [2], 1.5 µM; in assay [5] it was 7.62 µM. Also, the Emax in assay [4] worked out at 36%.
Turning to `Nc1cncc(-c2ccc3[nH]nc(-c4cc5c(N6CCCCC6)nccc5[nH]4)c3c2)n1` [Compound 992, 6-(3-(4-(Piperidin-1-yl)-1H-pyrrolo[3,2-c]pyridin-2-yl)-1H-indazol-5-yl) pyrazin-2-amine], the EC50 is 0.093 µM in assay [1], 0.546 µM in assay [2], over 10 µM in assay [3] and 0.093 µM in assay [5]. In assay [3], the inhibition at 10 µM was found to be 0%.
